Columns and labels:
Wistar rats = experiment: Anticonflict test (water drinking behavior under electroshock); assay type: in vivo; conditions: oral; for Relieving rate of anxiety: one hour before experiment, male Wistar rats; for anxiolytic effect (in words): dose of 1.0 mg/kg
Method: Wistar rats (males weighing 140 to 160 g) were used for experiment in groups of 11 to 14.
Compound 1'a-1, 1'a-5, 1'b-1, 1'''-8, 1'''-9, the above comparison compound, diazepam or buspirone was suspended in a 0.5 % sodium carboxymethyl cellulose solution, and the suspension was orally given to the animal in a volume of 5 ml/kg one hour before the start of experiment.
With reference to a method described in "Process in Anxiolytics and Antidepressants," edited by Showa Ueki and Tatsuo Furukawa, Ishiyaku Shuppansha, 56∼ 59 (1981), the agents were tested using experimental boxes having grid floor and a metal drinking tube in the floor. No water was supplied to the rats for 48 hours before the experiment. Upon lapse of first 24 hours, each group of rats were placed into the experimental box, permitted access to water for 30 seconds and caused to recognize the metal drinking tube. Upon lapse of further 24 hours with access to water prevented, the rats were placed into the box again and permitted access to water on condition that an electric current was passed between the metal drinking tube and the grid to give an electroshock for every 20 times of water drinking behavior to measure the frequency of water drinking behavior for 3 minutes. Anxiolytic effect was evaluated as relieving rate of anxiety as calculated by the following equation. Relieving rate of anxiety = (C-B)/(A-B) × 100 [formula] • A: Frequency of water drinking behavior of a control group without an electroshock and no anxiety (frequency under no punishment) • B: Frequency of water drinking behavior of a group with an electroshock and anxiety (under punishment) and having been administerd a solvent containing no test compound (frequency under solvent-control group) • C: Frequency of water drinking behavior of a group having been administered a test compound and relieved anxiety (frequency under test compound-administered group) Table 7

ddY mice [1] = experiment: Anticonvulsant effect (pentylenetetrazol-induced convulsion method); assay type: in vivo; conditions: for ED50: Mus musculus, po, 1 h, read-out: ED50 (anticonvulsant effect); for anticonvulsant effect: dose of 300 mg/kg, oral, male ddY mice
Method: (§1) Compound 1'a-1, the comparison compound, diazepam or buspirone was suspended in a 0.5 % sodium carboxymethyl cellulose solution, and the suspension was orally administered to 3- to 4-week-old male ddY mice (in groups of 6) in a volume of 10 ml/kg one hour before the start of experiment.
The test was conducted with reference to a method described in "Evaluation of Medicinal Efficacies (1), Pharmacological Test Method (I), Basic Lectures on Development of Pharmaceuticals," 167∼ 172(1971).

ddY mice [2] = conditions: mouse, in vivo, po, 300 mg/kg
Method: (§2) Compound 1'a-1, the comparison compound, diazepam or buspirone was suspended in a 0.5 % sodium carboxymethyl cellulose solution, and the suspension was orally administered to 3- to 4-week-old male ddY mice (in groups of 5) in a volume of 10 ml/kg one hour before the start of experiment.
With reference to a method described in Japan. J. Pharmacol., 49. 337∼ 349(1989), the foreleg of the mouse was hung on a horizontal wire, having a diameter of 1.2 mm and fixed at a level of 30 cm, three times consecutively. […] Thus, ED50 was determined for evaluation.

ddY mice [3] = conditions: mouse, in vivo, po, 300 mg/kg; remark: listed apart in the source
Method: as §2
The test was conducted with reference to a method described in "Evaluation of Medicinal Efficacies (1), Pharmacological Test Method (I ), Basic Lectures on Development of Pharmaceuticals," 50∼ 54(1971). More specifically, the group of mice were given the test drug and thereafter measured the amount of spontaneous locomotor activity for 10 minutes per mouse using Animex MK-110 (Muromachi Kikai Co., Ltd.).

ddY mice [4] = conditions: mouse, in vivo, po, 300 mg/kg; remark: listed apart in the source
Method: as §1
The test was conducted with reference to a method described in Japan. J. Pharmacol., 49, 337∼ 349(1989). More specifically, the group of mice were intraperitoneally given 25 % ethanol at a dose of 20 ml/kg and checked for the time interval between loss and recovery of the righting reflex.

ddY mice [5] = experiment: Acute toxicity test; assay type: in vivo; conditions: oral, 6 male ddY mice, observed for 3 days
Text: Five-week-old male ddY mice were used in groups of 6. […]

SMILES	Relieving rate of anxiety (Wistar rats; dose 1.0 mg/kg) [%]	anxiolytic effect (in words) (Wistar rats)	ED50 (ddY mice [1]) [mg/kg]	Relieving rate of anxiety (Wistar rats; dose 0.01 mg/kg) [%]	Relieving rate of anxiety (Wistar rats; dose 0.1 mg/kg) [%]	decreased anxiety (Wistar rats; doses of 0.01 to 0.1 mg/kg)	muscle relaxant effect (ddY mice [2])	sedative effect (ddY mice [3])	ethanol enhancing effect (ddY mice [4])	anticonvulsant effect (ddY mice [1])	Number of death (ddY mice [5]; dose 2000 mg/kg)	Number of death (ddY mice [5]; dose 3000 mg/kg)
CN1C(=O)CN=C(c2ccccc2)c2cc(Cl)ccc21 [Diazepam]	-3	almost ineffective	0.35									
O=C1CC2CCCCC2N1 (stereo not shown) [Comparison Compound, 2-azabicyclo[3.4.0]nonane-3-one]	46			43	44	up to 50%	no muscle relaxant effect	no sedative effect	no ethanol enhancing effect	no anticonvulsant effect	1	5
COc1ccc(C(=O)N2C(=O)CC[C@H]3[C@H](O)CC[C@H]32)cc1 (racemic) [Compound 1'a-1, (1RS, 6RS, 7RS)-7-hydroxy-2-(4-methoxybenzoyl)-2-azabicyclo-[4.3.0]nonan-3-one]	76			93	86		no muscle relaxant effect	no sedative effect	no ethanol enhancing effect	no anticonvulsant effect	0	2
O=C1CC2(CCCC2)CC(=O)N1CCCCN1CCN(c2ncccn2)CC1 [Buspirone]	2	almost ineffective	≥ 300									

— patent EP0790237B1, “BICYCLOLACTAM COMPOUNDS, USE OF THE SAME AND INTERMEDIATE IN THE PRODUCTION OF THE SAME” (TAIHO PHARMACEUTICAL CO., LTD., priority 1995, dated 1996)
